Assay results: PubChem BioAssay (NCI)
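How tested: cells in 96-well plates exposed to compound for 48 hours at five concentrations. The concentration for 50% growth inhibition is given as GI50. TGI: concentration producing complete growth inhibition.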

Legend:
Test in all cases: NCI tumour cell line growth inhibition, 48 h
[1] = tested on: OVCAR-3 ovarian
[2] = tested on: NCI-H460 lung
[3] = tested on: OVCAR-8 ovarian
[4] = tested on: SK-MEL-2 melanoma
[5] = tested on: K-562 leukemia
[6] = tested on: TK-10 renal
[7] = tested on: DU-145 prostate

| SMILES | TGI [1] [µM] | TGI [2] [µM] | TGI [3] [µM] | TGI [4] [µM] | TGI [5] [µM] | TGI [6] [µM] | TGI [7] [µM] | GI50 [1] [µM] | GI50 [2] [µM] | GI50 [3] [µM] | GI50 [4] [µM] | GI50 [5] [µM] | GI50 [6] [µM] | GI50 [7] [µM] |
| --- | --- | --- | --- | --- | --- | --- | --- | --- | --- | --- | --- | --- | --- | --- |
| CC(C)OC(=O)NNc1cc(Cl)ccc1Cl | > 100 | > 100 | > 100 | > 100 | > 100 | > 100 | > 100 |  |  |  |  |  |  |  |
| O=C(Nc1ccc(Br)cc1)c1ccc(Cl)c(Cl)c1 | 7.18 | > 30.5 | > 100 | > 29.8 | > 100 | > 100 | > 100 | 2.48 | 3.16 | 4.2 | 3.59 | 3.99 | 4.78 | 3.86 |
| COc1ccc(Nc2c3ccccc3nc3occ(Cl)c23)cc1 | < 0.0166 | 8.18 |  |  | > 35.1 | 8.67 | 22 | < 0.01 | < 0.01 | 0.0476 |  | < 0.01 | 0.0228 | 0.0874 |
| Cc1cn2c(/C=C3\C(=O)N(C)c4ccc(O)cc43)c(C)nc2s1 | 17 | 21.3 | > 100 | 18.4 | 20.6 | > 100 | > 100 | 2.65 | 3.54 | 11.3 | 3.33 | 2.01 | 16.1 | 21 |
| O=C(Nc1ccc(CO)cc1)c1coc2ccccc2c1=O | > 100 | > 100 | > 100 |  | > 100 | > 100 | > 100 | > 100 | > 100 | > 100 |  | > 100 | > 100 | > 100 |
| NC(N)=NCCCCCNc1noc(Cc2c[nH]c3cc(Br)ccc23)n1 | 33.5 | 43.3 | > 100 | 57.8 | 38.6 | > 100 | > 100 | 4.4 | 12.4 | 10.4 | 22.8 | 9.4 | 49.4 | 20.4 |
| Cc1cc2c(cc1Cl)SC(=Nc1ccc(Cl)cc1)N(S(=O)(=O)c1ccccc1)S2(=O)=O | 7.11 | 29.2 | 30.8 | 27.6 | 58.2 | 24.6 | 25.1 | 1.55 | 11.8 | 12.4 | 11.8 | 9.19 | 11.9 | 12.6 |
| COc1ccc2ncn(-c3cc(O[C@H](C)c4ccccc4Cl)c(C(N)=O)s3)c2c1 | 1.07 | 3.51 | 20.8 |  | > 25 | 11.1 |  | 0.00863 | 0.0133 | 0.0274 |  | 0.0145 | 1.19 |  |
| Cc1c(C2=C(Br)C(=O)N(C)C2=O)c(=O)n(C)c(=O)n1C | > 100 | > 100 | > 100 | 35.2 | 59.7 | 31.8 | 80.9 |  |  |  |  |  |  |  |
| C[C@]12CC[C@@H]3c4ccc(O)cc4CC[C@H]3[C@@H]1CC[C@@H]2NS(=O)(=O)c1cccc(F)c1 |  | 7.18 | 15.8 | 8.14 | 15.2 | 13.8 | 17.9 |  | 2.72 | 3.84 | 2.8 | 3.22 | 4.14 | 5.45 |
| N=C(N)SCc1cccc(-c2nc3ccccc3c(=O)o2)c1 | > 100 | > 100 | > 100 | > 100 | > 100 | > 100 | > 100 |  |  |  |  |  |  |  |
| O=C(Nc1ccc(-c2ccccc2)cc1)C1CCN(S(=O)(=O)c2ccccc2Cl)CC1 | > 100 | > 100 | 57.1 | > 100 | > 100 | 60.3 | > 100 | 41.9 | 40.8 | 22.7 | 49.7 | 71.8 | 20.6 | 27.9 |
| CC1CCC(=O)C(C(=O)CC2CC(=O)NC(=O)C2)C1 (centres undefined) | > 100 | > 100 | > 100 | > 100 | > 100 | > 100 | > 100 |  |  |  |  |  |  |  |
| C=C1C(=O)O[C@H]2/C=C(/C)C3=CC(=O)[C@@](C)(C[C@@H](OC(=O)/C(C)=C\C)C12)O3 (some centres undefined) | 5.04 | 11.8 | 3.94 | 16.6 | 1.84 | 1.6 | 8.99 | 1.24 |  |  |  |  |  |  |
| C=C1C(=O)O[C@H]2[C@H]1CC/C(COC(=O)c1ccc(Cl)nc1)=C\CC[C@@]1(C)O[C@@H]21 | 2.32 | 21.4 | 12.7 | 5.51 | 12.2 | 6.77 | 4.01 | 1.03 | 5.19 | 3.26 | 2.06 | 2.19 | 2.86 | 1.75 |
| Cn1cc(C2=C(c3cn(CCCCCN)c4ccccc34)C(=O)NC2=O)c2ccccc21 | > 23.2 | > 25 | > 25 | 18.2 | > 25 | > 25 | > 25 | 7.8 | 9.73 | 11 | 7.1 | 9.14 | 10.6 | 13.8 |
| CCOC(=O)CNC(=O)c1ccccc1Nc1ccnc(C(F)(F)F)c1 | 56.9 | > 68.1 | > 82.8 | > 72.4 | > 69.4 | > 100 | 99.8 | 20.2 | 29.8 | > 50.8 | 44.6 | 24 | 41.6 | 46.9 |
| COc1cc2ncn(-c3cc(OCCc4ccccc4)c(C(N)=O)s3)c2cc1OC | > 25 | > 25 | > 25 | > 25 | > 25 | > 25 | > 25 | > 25 | > 25 | > 25 | > 25 | > 25 | > 17.2 | > 23.2 |
| C=CCSS/C=C/CS(=O)CC=C (centres undefined) | > 95.9 | > 100 | 37.1 | 97.6 | > 77.9 | > 100 | > 100 |  |  |  |  |  |  |  |
